# Results reported in publication PMC8956739, “A synthetic lipopeptide targeting top-priority multidrug-resistant Gram-negative pathogens” (Nature Communications, 2022).
# “And” between values parts separate entries of the source, which are not always exact repeats. Equal entries are not always repeated. Where two headings read alike, the source gives them in different places. Residues, ends and D or L forms follow the SMILES beside them.
# Columns and labels:
# [1] = test system: P. aeruginosa ATCC 27853; assay: Neutropenic mouse bloodstream infection model; type: in vivo; conditions: single IV dose 4 mg/kg; for Log10 CFU/mL blood at 4 h, Mean / Δlog10 CFU/mL blood (mean) / Log10 CFU/mL blood at 4 h, single mouse: 4 h; for Δlog10 CFU/mL blood (mean): treated minus control, mean of replicates; for Δlog10 CFU/mL blood (mean) / Log10 CFU/mL blood at 4 h, single mouse / Delta Log10 CFU/mL blood at 4 h, single mouse: 4 mg/kg; for Delta Log10 CFU/mL blood at 4 h, single mouse: treated mouse minus mean of vehicle mice
# How it was run: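 Female Swiss mice made neutropenic with cyclophosphamide (150 mg/kg day −4, 100 mg/kg day −1), infected IV with 50 µL of 4 × 10^8 CFU/mL. Lipopeptide 4 mg/kg (free base) IV at 2 h post-inoculation, n = 3. Efficacy = Δlog10 CFU/mL blood versus saline at 4 h post-dose.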
# [2] = test system: MDR clinical isolates of Enterobacterales (n = 177, 152 carbapenem-resistant); assay: Extended MIC screening, MDR clinical isolates; type: cell-based
# Method: MICs were determined in cation-adjusted Mueller–Hinton broth (CaMHB) by the broth micro-dilution method against ATCC strains and clinical isolates. MICs in the presence of Survanta® were determined as described above against P. aeruginosa ATCC 27853. In the 100 μL of fresh CaMHB containing polymyxins, 10% Survanta® (v/v, 2.5 mg/mL phospholipids) was added. MICs in the presence and absence of Survanta® were compared to determine the effect of binding to lung surfactant on the antibacterial activity of polymyxins.
# [3] = test system: MDR clinical isolates of P. aeruginosa (n = 213, 55 carbapenem-resistant); type: cell-based, Pseudomonas aeruginosa
# How it was run: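 Cation-adjusted Mueller–Hinton broth was used with the broth microdilution method to set MICs against clinical isolates. A separate run on P. aeruginosa ATCC 27853 added 10% Survanta® (v/v, 2.5 mg/mL phospholipids) to gauge lung-surfactant binding of polymyxins.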
# [4] = test system: P. aeruginosa ATCC 27853; type: cell-based, Pseudomonas aeruginosa
# How it was run: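 Compounds were serially diluted in CaMHB, bacteria were added, and the lowest inhibitory concentration was recorded after broth microdilution testing.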
# [5] = test system: P. aeruginosa FADDI-PA025; type: cell-based, Pseudomonas aeruginosa
# How it was run: (§1)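 MICs were determined by broth microdilution in cation-adjusted Mueller–Hinton broth (CaMHB), with clinical isolates tested alongside ATCC strains.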
# [6] = test system: P. aeruginosa FADDI-PA038; type: cell-based, Pseudomonas aeruginosa; conditions: carbapenem-resistant isolate
# How it was run: as §1
# [7] = test system: K. pneumoniae FADDI-KP032; type: cell-based, Klebsiella pneumoniae; conditions: carbapenem-resistant isolate
# How it was run: as §1
# [8] = test system: K. pneumoniae FADDI-KP065; type: cell-based, Klebsiella pneumoniae; conditions: carbapenem-resistant isolate
# How it was run: as §1
# [9] = test system: wild-type HK-2 cells; assay: in vitro; type: cell-based, human
# Method: (§2) Fig. 6 Transcriptomic changes in human kidney proximal tubular HK-2 cells following treatments with polymyxin B (PMB), colistin (COL), F287, F319, and F365. a Numbers of differentially expressed genes. Distinctive intersections are color-coded. b Cell viability difference (two-tailed Student’s t-test, n = 4 biologically independent cells, Benjamini–Hochberg adjusted P-values) between wild-type HK-2 and KCNJ16 knockout (KO) cells following 24 h treatment with lipopeptides. n.s., not significant; ^*adjusted P < 0.05, ^**adjusted P < 0.01, ^***adjusted P < 0.001. Data are shown as mean ± s.d. and individual data points. c Extracted transcriptional regulatory network from Signor database with 1-step neighbor constraints (enlarged for detail). Source data are provided as a Source Data file.
# [10] = in vitro; type: cell-based, human; conditions: human, wild-type HK-2 cells (kidney proximal tubular), Cell viability, WT
# Method: as §2
# [11] = isolates with MIC 0.05 μg/mL (so in the source)
# [12] = isolates with MIC 0.125 μg/mL (so in the source)
# [13] = isolates with MIC 0.25 μg/mL (so in the source)
# [14] = isolates with MIC 0.5 μg/mL (so in the source)
# [15] = isolates with MIC 1 μg/mL (so in the source)
# [16] = isolates with MIC 2 μg/mL (so in the source)
# [17] = isolates with MIC 4 μg/mL (so in the source)
# [18] = isolates with MIC 8 μg/mL (so in the source)
# [19] = isolates with MIC 16 μg/mL (so in the source)
# [20] = isolates with MIC 32 μg/mL (so in the source)
# [21] = isolates with MIC 64 μg/mL (so in the source)
# [22] = isolates with MIC >64 μg/mL (so in the source)
# [23] = human, wild-type HK-2 cells (kidney proximal tubular), 24 h
# [24] = MDR clinical isolates of (n = 213, 55 carbapenem-resistant)
molecule,measurement,setting,value
Polymyxin B [reference compound],"Log10 CFU/mL blood at 4 h, Mean",[1],4.76 Log10 CFU/mL blood
same,Δlog10 CFU/mL blood (mean),[1],-2.69 log10 CFU/mL blood
same,Δlog10 CFU/mL blood (mean),[1]; listed as PMB,−2.69 log10 CFU/mL blood
same,"Log10 CFU/mL blood at 4 h, single mouse",[1],4.60 Log10 CFU/mL blood and 4.85 Log10 CFU/mL blood and 4.82 Log10 CFU/mL blood
same,"Delta Log10 CFU/mL blood at 4 h, single mouse",[1],-2.84 Log10 CFU/mL blood and -2.60 Log10 CFU/mL blood and -2.63 Log10 CFU/mL blood
same,Number of isolates,[2]; isolates with MIC 0.05 µg/mL,0
same,Number of isolates,[2]; isolates with MIC 0.125 µg/mL,0
same,Number of isolates,[2]; isolates with MIC 0.25 µg/mL,0
same,Number of isolates,[2]; isolates with MIC 0.5 µg/mL,0
same,Number of isolates,[2]; isolates with MIC 1 µg/mL,77
same,Number of isolates,[2]; isolates with MIC 2 µg/mL,76
same,Number of isolates,[2]; isolates with MIC 4 µg/mL,2
same,Number of isolates,[2]; isolates with MIC 8 µg/mL,2
same,Number of isolates,[2]; isolates with MIC 16 µg/mL,6
same,Number of isolates,[2]; isolates with MIC 32 µg/mL,3
same,Number of isolates,[2]; isolates with MIC 64 µg/mL,6
same,Number of isolates,[2]; isolates with MIC >64 µg/mL,5
same,MIC50,[3]; P. aeruginosa n = 213,1 µg/mL
same,MIC90,[3]; P. aeruginosa n = 213,2 µg/mL
same,Number of isolates,[3]; [11],0
same,Number of isolates,[3]; [12],0
same,Number of isolates,[3]; [13],1
same,Number of isolates,[3]; [14],9
same,Number of isolates,[3]; [15],99
same,Number of isolates,[3]; [16],95
same,Number of isolates,[3]; [17],7
same,Number of isolates,[3]; [18],0
same,Number of isolates,[3]; [19],2
same,Number of isolates,[3]; [20],0
same,Number of isolates,[3]; [21],0
same,Number of isolates,[3]; [22],0
same,MIC P. aeruginosa ATCC 27853,[4],0.5 µg/mL
same,loss of antibacterial activity due to binding to lung surfactant,[4]; 10% Survanta,87.5%
same,increase of MIC in the presence of lung surfactant,[4]; 10% Survanta vs none,8 fold
same,"MIC, 10% Survanta","[4]; P. aeruginosa ATCC 27853, 10% Survanta",8 µg/mL
same,"MIC, No Survanta","[4]; P. aeruginosa ATCC 27853, no surfactant",1 µg/mL
same,MIC P. aeruginosa FADDI-PA025,[5]; MDR clinical isolate,2 µg/mL
same,MIC P. aeruginosa FADDI-PA038,[6],0.5 µg/mL
same,MIC P. aeruginosa FADDI-PA038,[6]; listed as PMB,1 µg/mL
same,MIC K. pneumoniae FADDI-KP032,[7],0.5 µg/mL
same,MIC K. pneumoniae FADDI-KP065,[8],0.25 µg/mL
same,"Cell viability, WT, Rep1",[9]; [23],28.7713
same,"Cell viability, WT, Rep2",[9]; [23],35.2856
same,"Cell viability, WT, Rep4",[9]; [23],31.0651
"CC[C@@H]1NC(=O)[C@@H](CC(C)C)NC(=O)[C@H](CCN)NC(=O)[C@@H](NC(=O)[C@H](CN)NC(=O)[C@@H](NC(=O)[C@H](CCN)NC(=O)c2ccc(Cl)cc2Cl)[C@@H](C)O)CCNC(=O)[C@H]([C@@H](C)O)NC(=O)[C@H](CCN)NC(=O)[C@H](CCN)NC1=O [Lipopeptide F365] (HELM PEPTIDE1{[O=C(c1ccc(Cl)cc1Cl)[*:2]].[Dab].T.[NC[C@H](N[*:1])C(=O)[*:2]].[Dab].[Dab].[dL].[Abu].[Dab].[Dab].T}$PEPTIDE1,PEPTIDE1,5:R3-11:R2$$$V2.0)","Log10 CFU/mL blood at 4 h, Mean",[1],4.36 Log10 CFU/mL blood
same,Δlog10 CFU/mL blood (mean),[1],−3.44 log10 CFU/mL blood
same,"Log10 CFU/mL blood at 4 h, single mouse",[1],5.03 Log10 CFU/mL blood and 4.95 Log10 CFU/mL blood and 3.10 Log10 CFU/mL blood
same,"Delta Log10 CFU/mL blood at 4 h, single mouse",[1],-2.77 Log10 CFU/mL blood and -2.85 Log10 CFU/mL blood and -4.70 Log10 CFU/mL blood
same,Number of isolates,[2]; isolates with MIC 0.05 µg/mL,0
same,Number of isolates,[2]; isolates with MIC 0.125 µg/mL,9
same,Number of isolates,[2]; isolates with MIC 0.25 µg/mL,68
same,Number of isolates,[2]; isolates with MIC 0.5 µg/mL,72
same,Number of isolates,[2]; isolates with MIC 1 µg/mL,5
same,Number of isolates,[2]; isolates with MIC 2 µg/mL,1
same,Number of isolates,[2]; isolates with MIC 4 µg/mL,2
same,Number of isolates,[2]; isolates with MIC 8 µg/mL,0
same,Number of isolates,[2]; isolates with MIC 16 µg/mL,5
same,Number of isolates,[2]; isolates with MIC 32 µg/mL,2
same,Number of isolates,[2]; isolates with MIC 64 µg/mL,4
same,Number of isolates,[2]; isolates with MIC >64 µg/mL,6
same,MIC50,[3]; [24],0.5 µg/mL
same,MIC90,[3]; [24],1 µg/mL
same,potency relative to polymyxin B,"[3]; MIC50/MIC90, P. aeruginosa panel",2 fold
same,Number of isolates,[3]; [11],1
same,Number of isolates,[3]; [12],6
same,Number of isolates,[3]; [13],28
same,Number of isolates,[3]; [14],159
same,Number of isolates,[3]; [15],13
same,Number of isolates,[3]; [16],1
same,Number of isolates,[3]; [17],2
same,Number of isolates,[3]; [18],0
same,Number of isolates,[3]; [19],1
same,Number of isolates,[3]; [20],0
same,Number of isolates,[3]; [21],0
same,Number of isolates,[3]; [22],2
same,impact of lung surfactant on MIC,[4]; 10% Survanta vs none,not impacted
same,MIC P. aeruginosa ATCC 27853,[4]; ATCC 27853,0.5 µg/mL
same,"MIC, No Survanta",[4]; ATCC 27853,0.5 µg/mL
same,MIC P. aeruginosa FADDI-PA025,[5]; FADDI-PA025,0.5 µg/mL
same,MIC P. aeruginosa FADDI-PA038,[6],0.5 µg/mL
same,MIC K. pneumoniae FADDI-KP032,[7],<0.125 µg/mL
same,MIC K. pneumoniae FADDI-KP065,[8],<0.125 µg/mL
same,viability at 24 h,[10]; Rep1,96.4%
same,viability at 24 h,[10]; Rep2,95.4%
same,viability at 24 h,[10]; Rep4,95.1%
same,effect on cell viability,[9],no effect on cell viability
